COc1ccccc1OCCNCC(O)COc1cccc2[nH]c3ccccc3c12 (stereo not drawn)
solubility (mole fraction) (in THF, 278.15 K): 0.00043 | solubility (mole fraction) (in THF, 283.15 K): 0.00061 | solubility (mole fraction) (in THF, 288.15 K): 0.00085 | solubility (mole fraction) (in THF, 293.15 K): 0.00118 | solubility (mole fraction) (in THF, 298.15 K): 0.00167 | solubility (mole fraction) (in THF, 303.15 K): 0.00227 | solubility (mole fraction) (in THF, 308.15 K): 0.00302 | solubility (mole fraction) (in THF, 313.15 K): 0.004 | solubility (mole fraction) (in acetone, 278.15 K): 0.00064 | solubility (mole fraction) (in acetone, 283.15 K): 0.00088 | solubility (mole fraction) (in acetone, 288.15 K): 0.00117 | solubility (mole fraction) (in acetone, 293.15 K): 0.00154 | solubility (mole fraction) (in acetone, 298.15 K): 0.0021 | solubility (mole fraction) (in acetone, 303.15 K): 0.00268 | solubility (mole fraction) (in acetone, 308.15 K): 0.00354 | solubility (mole fraction) (in acetone, 313.15 K): 0.0046 | solubility (mole fraction) (in ethanol, 278.15 K): 0.00062 | solubility (mole fraction) (in ethanol, 283.15 K): 0.00085 | solubility (mole fraction) (in ethanol, 288.15 K): 0.00112 | solubility (mole fraction) (in ethanol, 293.15 K): 0.00143 | solubility (mole fraction) (in ethanol, 298.15 K): 0.00185 | solubility (mole fraction) (in ethanol, 303.15 K): 0.00246 | solubility (mole fraction) (in ethanol, 308.15 K): 0.00306 | solubility (mole fraction) (in ethanol, 313.15 K): 0.00389 | solubility (mole fraction) (in ethyl acetate, 278.15 K): 0.00063 | solubility (mole fraction) (in ethyl acetate, 283.15 K): 0.00086 | solubility (mole fraction) (in ethyl acetate, 288.15 K): 0.00146 | solubility (mole fraction) (in ethyl acetate, 293.15 K): 0.00187 | solubility (mole fraction) (in ethyl acetate, 298.15 K): 0.0024 | solubility (mole fraction) (in ethyl acetate, 303.15 K): 0.00294 | solubility (mole fraction) (in ethyl acetate, 308.15 K): 0.00371 | solubility (mole fraction) (in ethyl acetate, 313.15 K): 0.00424 | solubility (mole fraction) (in methanol, 278.15 K): 0.00063 | solubility (mole fraction) (in methanol, 283.15 K): 0.00087 | solubility (mole fraction) (in methanol, 288.15 K): 0.00114 | solubility (mole fraction) (in methanol, 293.15 K): 0.0015 | solubility (mole fraction) (in methanol, 298.15 K): 0.00201 | solubility (mole fraction) (in methanol, 303.15 K): 0.00256 | solubility (mole fraction) (in methanol, 308.15 K): 0.00329 | solubility (mole fraction) (in methanol, 313.15 K): 0.00419 | solubility (mole fraction) (in water, 278.15 K): 0.0196 | solubility (mole fraction) (in water, 283.15 K): 0.0232 | solubility (mole fraction) (in water, 288.15 K): 0.0278 | solubility (mole fraction) (in water, 293.15 K): 0.033 | solubility (mole fraction) (in water, 298.15 K): 0.0398 | solubility (mole fraction) (in water, 303.15 K): 0.0468 | solubility (mole fraction) (in water, 308.15 K): 0.0552 | solubility (mole fraction) (in water, 313.15 K): 0.0641
